Assay results reported in PubChem BioAssay AID248 (DTP/NCI, 2004).
Values joined by “and” are separate entries in the source; they are usually repeats but may differ in a detail not shown here. Equal values may be shown once. Toxic doses and inconclusive results are not listed. No stated cut-off is given here; in the data, active means T/C of 150% or more; inactive means T/C below 125%.

Test system: L1210 leukemia ip in BDF1 mice, survival T/C
Test: NCI In Vivo Anticancer Drug Screen. Data for tumor model L1210 Leukemia (intraperitoneal) in B6D2F1 (BDF1) mice
Settings: endpoint: mean survival time, higher = longer survival
In short: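 In this screen, tumor-bearing mice given compound are compared to those given vehicle, and their survival values are reported as a treated-to-control quotient.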

[1] = dose: 100.0 mg/kg/injection, schedule: Q01DX009 (ip), vehicle: saline with Tween-80
[2] = dose: 100.0 mg/kg/injection, schedule: Q04DX003 (ip), vehicle: saline with Tween-80
[3] = dose: 200.0 mg/kg/injection, schedule: Q01DX009 (ip), vehicle: saline with Tween-80
[4] = dose: 200.0 mg/kg/injection, schedule: Q04DX003 (ip), vehicle: saline with Tween-80
[5] = dose: 400.0 mg/kg/injection, schedule: Q01DX009 (ip), vehicle: saline with Tween-80
[6] = dose: 400.0 mg/kg/injection, schedule: Q04DX003 (ip), vehicle: saline with Tween-80
[7] = dose: 100.0 mg/kg/injection, schedule: Q04DX002 (ip), vehicle: saline with Tween-80
[8] = dose: 100.0 mg/kg/injection, schedule: Q01DX001 (ip), vehicle: saline with Tween-80
[9] = dose: 200.0 mg/kg/injection, schedule: Q01DX001 (ip), vehicle: saline with Tween-80
[10] = dose: 400.0 mg/kg/injection, schedule: Q01DX001 (ip), vehicle: saline with Tween-80
[11] = dose: 100.0 mg/kg/injection, schedule: Q01DX009 (ip), vehicle: Klucel (hydroxypropylcellulose) (HPC)
[12] = dose: 100.0 mg/kg/injection, schedule: Q04DX003 (ip), vehicle: Klucel (hydroxypropylcellulose) (HPC)
[13] = dose: 200.0 mg/kg/injection, schedule: Q01DX009 (ip), vehicle: Klucel (hydroxypropylcellulose) (HPC)
[14] = dose: 200.0 mg/kg/injection, schedule: Q04DX003 (ip), vehicle: Klucel (hydroxypropylcellulose) (HPC)
[15] = dose: 400.0 mg/kg/injection, schedule: Q01DX009 (ip), vehicle: Klucel (hydroxypropylcellulose) (HPC)
[16] = dose: 400.0 mg/kg/injection, schedule: Q04DX003 (ip), vehicle: Klucel (hydroxypropylcellulose) (HPC)
[17] = dose: 100.0 mg/kg/injection, schedule: Q04DX002 (ip), vehicle: Klucel (hydroxypropylcellulose) (HPC)
[18] = dose: 200.0 mg/kg/injection, schedule: Q04DX002 (ip), vehicle: Klucel (hydroxypropylcellulose) (HPC)
[19] = dose: 400.0 mg/kg/injection, schedule: Q04DX002 (ip), vehicle: Klucel (hydroxypropylcellulose) (HPC)
[20] = dose: 12.5 mg/kg/injection, schedule: Q04DX002 (ip), vehicle: Klucel (hydroxypropylcellulose) (HPC)
[21] = dose: 50.0 mg/kg/injection, schedule: Q01DX009 (ip), vehicle: Klucel (hydroxypropylcellulose) (HPC)
[22] = dose: 25.0 mg/kg/injection, schedule: Q04DX002 (ip), vehicle: Klucel (hydroxypropylcellulose) (HPC)
[23] = dose: 50.0 mg/kg/injection, schedule: Q04DX002 (ip), vehicle: Klucel (hydroxypropylcellulose) (HPC)

Measured: T/C

Cc1cc(C)c(NS(=O)(=O)c2ccccc2)c(C)n1
inactive: [1] 98 % of control and 100 % of control | [2] 96 % of control | [3] 91 % of control and 92 % of control | [4] 100 % of control | [5] 96 % of control and 97 % of control | [6] 96 % of control

CCOc1ccccc1C=C(C#N)C#N
inactive: [7] 100 % of control

CNC(=O)N(C1CCCCC1)C1CCCCC1
inactive: [8] 109 % of control | [1] 94 % of control and 111 % of control | [7] 105 % of control and 108 % of control | [9] 109 % of control | [3] 86 % of control and 91 % of control | dose: 200.0 mg/kg/injection, schedule: Q04DX002 (ip), vehicle: saline with Tween-80 92 % of control and 108 % of control | [10] 108 % of control | [5] 101 % of control and 91 % of control | dose: 400.0 mg/kg/injection, schedule: Q04DX002 (ip), vehicle: saline with Tween-80 96 % of control and 108 % of control

CCCCCCCCCCCCCCCC(=O)OC
inactive: [11] 105 % of control | [12] 98 % of control | [13] 101 % of control | [14] 93 % of control | [15] 97 % of control | [16] 98 % of control

O=C(Oc1c(Cl)cc(S(=O)(=O)F)cc1Cl)c1ccccc1Cl
inactive: [17] 92 % of control | [18] 89 % of control | [19] 89 % of control

CC12CCC(/C(=C/N(O)/C=C3\C(=O)C4(C)CCC3C4(C)C)C1=O)C2(C)C
inactive: dose: 75.0 mg/kg/injection, schedule: Q01DX001 (ip), vehicle: saline 96 % of control | dose: 150.0 mg/kg/injection, schedule: Q01DX001 (ip), vehicle: saline 91 % of control | dose: 300.0 mg/kg/injection, schedule: Q01DX001 (ip), vehicle: saline 94 % of control

O=[N+]([O-])c1cccc2nonc12
inactive: dose: 3.12 mg/kg/injection, schedule: Q04DX002 (ip), vehicle: Klucel (hydroxypropylcellulose) (HPC) 93 % of control | dose: 6.25 mg/kg/injection, schedule: Q04DX002 (ip), vehicle: Klucel (hydroxypropylcellulose) (HPC) 109 % of control | [20] 102 % of control

Nc1cccc(CCc2nc(N)nc(N)c2-c2ccc(Cl)cc2)c1
inactive: [8] 97 % of control | [9] 95 % of control | [10] 101 % of control

CC1(C)C2CCC3C(C#N)C(CCC#N)C=CC3C21 (stereo not given)
inactive: dose: 100.0 mg/kg/injection, schedule: Q04DX003 (sc), vehicle: olive oil, sesame oil, peanut oil 98 % of control | dose: 200.0 mg/kg/injection, schedule: Q04DX003 (sc), vehicle: olive oil, sesame oil, peanut oil 97 % of control | dose: 400.0 mg/kg/injection, schedule: Q04DX003 (sc), vehicle: olive oil, sesame oil, peanut oil 101 % of control

O=C(O)/C=C/C(=O)Nc1ccccc1NC(=O)/C=C/C(=O)O
inactive: [11] 101 % of control | [13] 92 % of control | [15] 97 % of control

COc1cccc(/C(=C/c2ccc([N+](=O)[O-])cc2)C(=O)O)c1
inactive: dose: 100.0 mg/kg/injection, schedule: Q01DX001 (ip), vehicle: Klucel (hydroxypropylcellulose) (HPC) 100 % of control | [11] 97 % of control and 100 % of control | [12] 100 % of control | dose: 200.0 mg/kg/injection, schedule: Q01DX001 (ip), vehicle: Klucel (hydroxypropylcellulose) (HPC) 109 % of control | [13] 96 % of control and 87 % of control | [14] 105 % of control | dose: 400.0 mg/kg/injection, schedule: Q01DX001 (ip), vehicle: Klucel (hydroxypropylcellulose) (HPC) 97 % of control | [15] 100 % of control and 91 % of control | [16] 105 % of control

COC(=O)c1sc2ccccc2c1CC#N
inactive: dose: 100.0 mg/kg/injection, schedule: Q01DX001 (ip), vehicle: carboxymethylcellulose (CMC) 103 % of control | dose: 200.0 mg/kg/injection, schedule: Q01DX001 (ip), vehicle: carboxymethylcellulose (CMC) 86 % of control | dose: 400.0 mg/kg/injection, schedule: Q01DX001 (ip), vehicle: carboxymethylcellulose (CMC) 103 % of control

COc1ccc(C)cc1NC(=O)/C=C/c1ccccc1
inactive: [17] 100 % of control | [18] 100 % of control | [19] 100 % of control

CCOC(=O)C(N=Nc1ccccc1)C(C)=O (stereo not given)
inactive: dose: 12.5 mg/kg/injection, schedule: Q01DX009 (ip), vehicle: Klucel (hydroxypropylcellulose) (HPC) 100 % of control | dose: 25.0 mg/kg/injection, schedule: Q01DX009 (ip), vehicle: Klucel (hydroxypropylcellulose) (HPC) 97 % of control | [21] 94 % of control | [12] 103 % of control | [14] 100 % of control | [16] 88 % of control

CC(=O)C1CCCCC1
inactive: [2] 107 % of control | [4] 109 % of control | [6] 96 % of control

CC(C)(C)OC(=O)NCCCCC(NC(=O)OCc1ccccc1)C(=O)O (stereo not given)
inactive: dose: 25.0 mg/kg/injection, schedule: Q04DX002 (ip), vehicle: saline with Tween-80 90 % of control | dose: 50.0 mg/kg/injection, schedule: Q04DX002 (ip), vehicle: saline with Tween-80 97 % of control | [1] 89 % of control | [7] 101 % of control

c1ccc(/C(N=NC(c2ccccc2)(c2ccccc2)c2ccccc2)=C(/N=NC(c2ccccc2)(c2ccccc2)c2ccccc2)c2ccccc2)cc1
inactive: dose: 100.0 mg/kg/injection, schedule: Q01DX009 (ip), vehicle: saline sonified 94 % of control | dose: 200.0 mg/kg/injection, schedule: Q01DX009 (ip), vehicle: saline sonified 97 % of control | dose: 400.0 mg/kg/injection, schedule: Q01DX009 (ip), vehicle: saline sonified 94 % of control

CCOC(=O)c1ccc(N=Cc2ccccc2O)cc1
inactive: [21] 98 % of control | dose: 75.0 mg/kg/injection, schedule: Q01DX001 (ip), vehicle: Klucel (hydroxypropylcellulose) (HPC) 88 % of control | [11] 89 % of control | dose: 150.0 mg/kg/injection, schedule: Q01DX001 (ip), vehicle: Klucel (hydroxypropylcellulose) (HPC) 105 % of control | [13] 106 % of control | dose: 300.0 mg/kg/injection, schedule: Q01DX001 (ip), vehicle: Klucel (hydroxypropylcellulose) (HPC) 88 % of control

BrCC1OCC2(CO1)COC(CBr)OC2 (stereo not given)
inactive: [12] 96 % of control | [14] 104 % of control

O=C(OCc1ccccc1CN1CCCCC1)c1ccc(Br)cc1
inactive: [22] 115 % of control | [23] 109 % of control | [17] 105 % of control

COc1ccc(NC(=O)c2ccc(C(=O)Nc3ccc(OC)cc3OC)cc2)c(OC)c1
inactive: [17] 90 % of control | [18] 93 % of control and 102 % of control | [19] 93 % of control and 91 % of control

COc1ccc(OC)c(NC(=S)N/N=C(\C)c2cc(Cl)ccc2O)c1
inactive: [20] 102 % of control | [22] 102 % of control | [23] 118 % of control

CC(=O)/C(=C(/C)OB(F)F)C(C)C
inactive: dose: 50.0 mg/kg/injection, schedule: Q01DX001 (ip), vehicle: saline 102 % of control | dose: 100.0 mg/kg/injection, schedule: Q01DX001 (ip), vehicle: saline 104 % of control | dose: 200.0 mg/kg/injection, schedule: Q01DX001 (ip), vehicle: saline 102 % of control

CCC(C)C(=NC)Nc1ccc(Cl)c(Cl)c1 (stereo not given)
inactive: dose: 111.0 mg/kg/injection, schedule: Q01DX Z (ip), vehicle: methylcellulose (MC) 91 % of control

O=c1cc(CSCC(O)CO)[nH]c(=O)[nH]1 (stereo not given)
inactive: dose: 100.0 mg/kg/injection, schedule: Q04DX003 (ip), vehicle: saline 98 % of control | dose: 200.0 mg/kg/injection, schedule: Q04DX003 (ip), vehicle: saline 98 % of control | dose: 400.0 mg/kg/injection, schedule: Q04DX003 (ip), vehicle: saline 96 % of control
